For 29 compounds, Ki results are on record in US12110288B2, “MASP-2 inhibitors and methods of use” (Omeros Corporation, priority 2019, dated 2024).

Molecules are shown by their SMILES. Structures can show the parent of a compound that is named as a salt.

The assay deals with T1, MASP-2 (CCP1-CCP2-SP) (Homo sapiens, UniProt O00187).
T1 construct: 15 μL of Enzyme MASP-2 (CCP1-CCP2-SP) in Assay Buffer
The assay can be described thus: Enzymatic Assay for MASP-2. As to conditions: fluorogenic substrate based on C2 cleavage site, room temperature, 20 mM HEPES pH 7.4. In kind it is biochemical. In short, it runs like this: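 Fluorogenic substrate modelled on the C2 cleavage site, run at room temperature in 20 mM HEPES pH 7.4, 140 mM NaCl, 0.1% Tween 20; compounds were added from DMSO serial dilutions before enzyme and substrate. Reactions ran 20 min and were stopped with 0.1 M acetic acid before fluorescence was read. % activity was normalised to DMSO-only and no-enzyme controls; IC50 was taken as Ki, with tight- or slow-binding inhibitors handled separately.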

T1 sequence (O00187 445-686 limits assumed): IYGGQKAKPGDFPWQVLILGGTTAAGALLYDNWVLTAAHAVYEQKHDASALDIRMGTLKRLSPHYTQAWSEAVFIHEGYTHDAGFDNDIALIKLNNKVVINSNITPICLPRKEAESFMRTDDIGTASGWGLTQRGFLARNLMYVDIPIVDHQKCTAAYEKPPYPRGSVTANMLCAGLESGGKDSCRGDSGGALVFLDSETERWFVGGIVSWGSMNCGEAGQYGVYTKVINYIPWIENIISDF
T1 sequence (O00187 298-444 partner limits assumed): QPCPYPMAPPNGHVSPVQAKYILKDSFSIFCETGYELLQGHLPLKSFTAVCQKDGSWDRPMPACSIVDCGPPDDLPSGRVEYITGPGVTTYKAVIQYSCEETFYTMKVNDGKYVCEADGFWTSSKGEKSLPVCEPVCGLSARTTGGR

On to `NCc1cccc(-c2cnc(NCCc3ccccc3)c(=O)n2CC(=O)NCc2cc3cnccc3[nH]2)c1` [Compound 96, N-((1H-Pyrrolo[3,2-c]Pyridin-2-yl)Methyl)-2-(6-(3-(Aminomethyl)Phenyl)-2-Oxo-3-(Phenethylamino)Pyrazin-1(2H)-yl)Acetamide], for which the Ki – broadly, the dissociation constant of the complex between target and ligand, obtained from inhibition or displacement – was below 500 nM. Take `Cc1nc(N)ccc1CNC(=O)Cn1c(C#Cc2ccccc2)cnc(NCCc2ccccc2)c1=O` [Compound 26, N-((6-Amino-2-Methylpyridin-3-yl)Methyl)-2-(2-Oxo-3-(Phenethylamino)-6-(Phenylethynyl)Pyrazin-1(2H)-yl)Acetamide]: the Ki fell in the range of 500 to 2500 nM. The compound `Cc1ccccc1-c1cnc(NCCc2ccccc2)c(=O)n1CC(=O)NCc1cc2cnccc2[nH]1` [Compound 87, N-((1H-Pyrrolo[3,2-c]pyridin-2-yl)methyl)-2-(2-oxo-3-(phenethylamino)-6-(o-tolyl)pyrazin-1(2H)-yl)acetamide trifluoroacetate] displayed a Ki below 500 nM. For `O=C(Cn1c(-c2ccccc2)cnc(N[C@@H](Cc2ccc(O)cc2)C(=O)O)c1=O)NCc1cc2cnccc2[nH]1` [Compound 119, trifluoroacetate], the Ki was below 500 nM. `COCCCNc1ncc(-c2ccccc2)n(CC(=O)NCc2cc3cnccc3[nH]2)c1=O` [Compound 121, N-((1H-Pyrrolo[3,2-c]pyridin-2-yl)methyl)-2-(3-((3-methoxypropyl)amino)-2-oxo-6-phenylpyrazin-1(2H)-yl)acetamide trifluoroacetate] showed a Ki below 500 nM.

On to `Cn1cc(-c2cnc(NCCc3ccccc3)c(=O)n2CC(=O)NCc2cc3cnccc3s2)cn1` [Compound 133, 2-(6-(1-Methyl-1H-Pyrazol-4-yl)-2-Oxo-3-(Phenethylamino)Pyrazin-1(2H)-yl)-N-(Thieno[3,2-c]Pyridin-2-Ylmethyl)Acetamide], for which the Ki was below 500 nM. `O=C(O)Cc1cccc(-c2cnc(NCCc3ccccc3)c(=O)n2CC(=O)NCc2cc3cnccc3[nH]2)c1` [Compound 94, 2-(3-(1-(2-(((1H-Pyrrolo[3,2-c]Pyridin-2-yl)Methyl) Amino)-2-Oxoethyl)-6-Oxo-5-(Phenethylamino)-1,6-Dihydropyrazin-2-yl)Phenyl)Acetic Acid Trifluoroacetate] had a Ki below 500 nM. As to `Cc1ccc(C)c(-c2cnc(NCCc3ccccc3)c(=O)n2CC(=O)NCc2cc3cnccc3[nH]2)c1` [Compound 108, N-((1H-Pyrrolo[3,2-c]pyridin-2-yl)methyl)-2-(6-(2,5-dimethylphenyl)-2-oxo-3-(phenethylamino)pyrazin-1(2H)-yl)acetamide], the Ki was below 500 nM. Compound `O=C(Cn1c(-c2ccccc2)cnc(NCc2cccc(C(F)(F)F)c2)c1=O)NCc1cc2cnccc2[nH]1` [Compound 152, N-((1H-Pyrrolo[3,2-c]pyridin-2-yl)methyl)-2-(2-oxo-6-phenyl-3-((3-(trifluoromethyl)benzyl)amino)pyrazin-1(2H)-yl)acetamide] returned a Ki below 500 nM. For the compound `Cn1cc(-c2cnc(NCCc3ccccc3)c(=O)n2CC(=O)NCc2cc(Cl)c3[nH]cnc3c2)cn1` [Compound 130, N-((7-Chloro-1H-Benzo[d]Imidazol-5-yl)Methyl)-2-(6-(1-Methyl-1H-Pyrazol-4-yl)-2-Oxo-3-(Phenethylamino)Pyrazin-1(2H)-yl)Acetamide], the Ki fell in the range of 2500 to 10000 nM. The compound `O=C(Cn1c(-c2ccccc2)cnc(NCc2cc(F)cc(F)c2)c1=O)NCc1cc2cnccc2[nH]1` [Compound 154, N-((1H-Pyrrolo[3,2-c]pyridin-2-yl)methyl)-2-(3-((3,5-difluorobenzyl)amino)-2-oxo-6-phenylpyrazin-1(2H)-yl)acetamide] gave a Ki below 500 nM.

Turning to `Cn1cc(-c2cnc(NCCc3ccccc3)c(=O)n2CC(=O)NCc2cc3cnccc3o2)cn1` [Compound 132], the Ki was 500 to 2500 nM. As for `Cc1nc(N)ccc1CNC(=O)Cn1c(-c2ccccc2)cnc(N2CCOCC2)c1=O` [Compound 44, N-((6-Amino-2-methylpyridin-3-yl)methyl)-2-(3-morpholino-2-oxo-6-phenylpyrazin-1(2H)-yl)acetamide], the Ki was below 500 nM.

On to `Nc1nc2ccc(CNC(=O)Cn3c(-c4ccccc4)ncc(NCCc4ccccc4)c3=O)cc2[nH]1` [Compound 4, N-((2-Amino-1H-Benzo[d]Imidazol-6-yl)Methyl)-2-(6-Oxo-5-(Phenethylamino)-2-Phenylpyrimidin-1(6H)-yl)Acetamide, Trifluoroacetate], for which the Ki is below 500 nM.

In turn, `O=C(Cn1c(-c2cnn(C3CNC3)c2)cnc(NCCc2ccccc2)c1=O)NCc1cc2cnccc2[nH]1` [Compound 112, N-((1H-Pyrrolo[3,2-c]Pyridin-2-yl)Methyl)-2-(6-(1-(Azetidin-3-yl)-1H-Pyrazol-4-yl)-2-Oxo-3-(Phenethylamino)Pyrazin-1(2H)-yl)Acetamide Hydrochloride] had a Ki below 500 nM. Regarding `Cn1cc(-c2cnc(NCCC(F)F)c(=O)n2CC(=O)NCc2cc3cnccc3[nH]2)cn1` [Compound 125, N-((1H-Pyrrolo[3,2-c]pyridin-2-yl)methyl)-2-(3-((3,3-difluoropropyl)amino)-6-(1-methyl-1H-pyrazol-4-yl)-2-oxopyrazin-1(2H)-yl)acetamide trifluoroacetate], the Ki is below 500 nM. As for `O=C(Cn1c(-c2cccc(C3(O)CC3)c2)cnc(NCCc2ccccc2)c1=O)NCc1cc2cnccc2[nH]1` [Compound 98, N-((1H-Pyrrolo[3,2-c]pyridin-2-yl)methyl)-2-(6-(3-(1-hydroxycyclopropyl)phenyl)-2-oxo-3-(phenethylamino)pyrazin-1(2H)-yl)acetamide], the Ki was below 500 nM.

Compound `CCOCCCNc1ncc(-c2ccccc2)n(CC(=O)NCc2cc3cnccc3[nH]2)c1=O` [Compound 126, N-((1H-Pyrrolo[3,2-c]Pyridin-2-yl)Methyl)-2-(3-((3-Ethoxypropyl)Amino)-2-Oxo-6-Phenylpyrazin-1(2H)-yl)Acetamide Trifluoroacetate] showed a Ki below 500 nM. For `O=C(Cn1c(-c2ccccc2)cnc(NCC(F)(F)c2ccccc2)c1=O)NCc1cc2cnccc2[nH]1` [Compound 128, N-((1H-Pyrrolo[3,2-c]pyridin-2-yl)methyl)-2-(3-((2,2-difluoro-2-phenylethyl)amino)-2-oxo-6-phenylpyrazin-1(2H)-yl)acetamide trifluoroacetate] the value was below 500 nM; for `O=C(Cn1c(-c2cnn3c2CCCC3)cnc(NCCc2ccccc2)c1=O)NCc1cc2cnccc2[nH]1` [Compound 116, N-((1H-Pyrrolo[3,2-c]pyridin-2-yl)methyl)-2-(2-oxo-3-(phenethylamino)-6-(4,5,6,7-tetrahydropyrazolo[1,5-α]pyridin-3-yl)pyrazin-1(2H)-yl)acetamide], below 500 nM; for `Cn1cc(-c2cnc(NCCc3ccccc3)c(=O)n2CC(=O)NCc2cnc3[nH]cc(Cl)c3c2)cn1` [Compound 81, N-((3-Chloro-1H-Pyrrolo[2,3-b]Pyridin-5-yl)Methyl)-2-(6-(1-Methyl-1H-Pyrazol-4-yl)-2-Oxo-3-(Phenethylamino)Pyrazin-1(2H)-yl)Acetamide], 2500 to 10000 nM. `COc1cccc(C2(CNc3ncc(-c4ccccc4)n(CC(=O)NCc4cc5cnccc5[nH]4)c3=O)CC2)c1` [Compound 68, N-((1H-Pyrrolo[3,2-c]pyridin-2-yl)methyl)-2-(3-(((1-(3-methoxyphenyl)cyclopropyl)methyl)amino)-2-oxo-6-phenylpyrazin-1(2H)-yl)acetamide trifluoroacetate] displayed a Ki below 500 nM. For `Cc1nc(N)ccc1CNC(=O)Cn1c(-c2cccc(C(N)=O)c2)cnc(NCCc2ccccc2)c1=O` [Compound 30, 3-(1-(2-(((6-Amino-2-methylpyridin-3-yl)methyl)amino)-2-oxoethyl)-6-oxo-5-(phenethylamino)-1,6-dihydropyrazin-2-yl)benzamide hydrochloride] the value was below 500 nM; for `O=C(Cn1c(-c2ccccc2)cnc(N2CCC(c3ccccc3)CC2)c1=O)NCc1cc2cnccc2[nH]1` [Compound 140, N-((1H-Pyrrolo[3,2-c]pyridin-2-yl)methyl)-2-(2-oxo-6-phenyl-3-(4-phenylpiperidin-l-yl)pyrazin-1(2H)-yl)acetamide], below 500 nM. Consider `CC(C)(C)OC(=O)N1CCC2(CC1)CCN(c1ncc(-c3ccccc3)n(CC(=O)NCc3cc4cnccc4[nH]3)c1=O)C2` [Compound 53, Tert-Butyl 2-(4-(2-(((1H-Pyrrolo[3,2-c]Pyridin-2-yl)Methyl)Amino)-2-Oxoethyl)-3-Oxo-5-Phenyl-3,4-Dihydropyrazin-2-yl)-2,8-Diazaspiro[4.5]Decane-8-Carboxylate], for which the Ki is below 500 nM. In turn, `O=C(Cn1c(-c2ccccc2)cnc(NCCc2ccccc2F)c1=O)NCc1cc2cnccc2[nH]1` [Compound 144, N-((1H-Pyrrolo[3,2-c]pyridin-2-yl)methyl)-2-(3-((2-fluorophenethyl)amino)-2-oxo-6-phenylpyrazin-1(2H)-yl)acetamide] gave a Ki below 500 nM.

Regarding `Cc1nc(N)ccc1CNC(=O)Cn1c(-c2ccc[nH]2)cnc(NCCc2ccccc2)c1=O` [Compound 22, N-((6-Amino-2-methylpyridin-3-yl)methyl)-2-(2-oxo-3-(phenethylamino)-6-(1H-pyrrol-2-yl)pyrazin-1(2H)-yl)acetamide], the Ki is below 500 nM. Take `COc1ccc(CCNc2ncc(-c3ccccc3)n(CC(=O)NCc3cc4cnccc4[nH]3)c2=O)cc1` [Compound 142, N-((1H-Pyrrolo[3,2-c]pyridin-2-yl)methyl)-2-(3-((4-methoxyphenethyl)amino)-2-oxo-6-phenylpyrazin-1(2H)-yl)acetamide]: the Ki is below 500 nM. `Cc1ccc(C2(CNc3ncc(-c4ccccc4)n(CC(=O)NCc4cc5cnccc5[nH]4)c3=O)CC2)cc1` [Compound 63, N-((1H-Pyrrolo[3,2-c]pyridin-2-yl)methyl)-2-(2-oxo-6-phenyl-3-(((1-(p-tolyl)cyclopropyl)methyl)amino)pyrazin-1(2H)-yl)acetamide trifluoroacetate] had a Ki below 500 nM.
